From US11613552B2, “Pharmaceutical agents, compositions, and methods relating thereto” (Alltech, Inc., priority 2017, dated 2023)

Legend:
[1] = tested on: HepG2 cells; assay: Glucose production assay in HepG2 cells; type: cell-based, human
Procedure: (§1) Equal numbers of Human HepG2 or rat H4IIE cells (1-1.5×10^5 cells/well) were seeded on 96 well plates in 10% FBS-containing media for 24 hr. Cells were then washed twice with PBS, and treated with various concentrations of compounds, metformin or insulin in 100 μl of glucose production media (glucose-free, phenol red-free DMEM media supplemented with 20 mM sodium lactate, 2 mM sodium pyruvate and 5 mM HEPES) at 37° C. for 24 hr (H4IIE cells only) or 48 hr (HepG2 cell only). Cells were also incubated with 0.24% DMSO (the maximal volume of DMSO solvent used in the experiments).
(§2) After the above treatments, 50 μl of culture media were collected, and subjected to glucose analysis using Molecular Probes Amplex Red glucose assay kit (Cat #A22189) according to the manufacturer's protocol. Cell numbers or viability in the culture plate after the above compound treatments were determined using Promega's CellTiter96® AQueous One Solution Cell Proliferation Assay kits, according to the manufacturer's protocol and instructions. In brief, after removing 50 μl of culture media for glucose assay, cells were incubated with AQueous One solution (25 μl stock solution and 50 μl prewarmed PBS/per well) at 37° C. for 1 hour, and the absorbance of OD490 nm in each sample was determined by the Bio-Tek microplate reader. Cell viability in culture wells were determined by the subtraction of OD490 nm in cultured cells with the OD490 nm in plain culture media (without seeding of cells). Glucose production in the culture cells were obtained by normalizing the glucose concentration in culture media by cell viability in each well. At least 3 samples per each treatment were examined for the above analysis. Data are presented as Mean±SEM of those samples. Experiments were repeated at least twice.
(§3) The half maximal inhibitory concentration (IC50 values) of Compound #43 or metformin for the inhibition of glucose production were determined using the ED50 Plus v1.0 online software.

[2] = Body weight, gross morphology and walking behavior of treated Lepr^db/db mice; type: in vivo
Procedure: Body weights of the above treated mice were recorded daily using a balance and any visible abnormal animal gross morphology and walking behavior were monitored daily. After the treatments, animals were fasted overnight and then subjected to blood glucose or HbA1c assays, glucose tolerance tests or tissue collections.
After the treatments for 43 days, animals were fasted overnight and then subjected to blood glucose and glucose tolerance tests. After daily treatments of these compounds for 90 days, sera from these animals were collected and then subjected to blood HbA1c assays.

[3] = biological target: T1, native insulin receptor (Insr) (Rattus norvegicus, UniProt P15127); assay: In vitro cell-free phosphorylation of native insulin receptor; type: biochemical; settings: 3.8 μM, cell-free (FIG. 27)
T1 construct: native insulin receptor proteins, containing both alpha and beta subunits; purchased Sigma I9266; host or cells: purified from rat liver tissue
Procedure: In vitro phosphorylation of Insr was performed according to Sigma's protocol with the following modifications. In brief, 10 μl of native insulin receptor solution containing 0.8 μl of original native INSR stock solution (Sigma, Catalog #I9266; diluted in enzyme dilution buffer containing 50 mM HEPES, pH 7.6, 150 mM NaCl and 0.1% Triton X-100) were incubated with equal volume of solutions containing insulin (Sigma), DMSO (Compound #43 solvent), Compound #43 or Compound #68 (diluted in 50 mM HEPES, pH 7.6 and 100 μg/ml bovine serum albumin) on ice for 30 min. Then 20 μl of 2× kinase buffer containing 0.2 mM ATP, 50 mM HEPES, pH 7.6, 50 mM MgCl2 and 4 mM MnCl2 were added to the above reactions, mixed and incubated on ice for 45 minutes.
Five microliters of the above reactions were immediately subjected to Western blot analysis using specific antibodies against phosphorylated tyrosine residues at 1146, 1150 and 1151 of Insrβ proteins (Cell Signaling Inc.). Protein band density was determined using the NIH Image J software.

[4] = tested on: Lepr^db/db mice; assay: Glucose tolerance test in Lepr^db/db mice; type: in vivo, mouse
Procedure: (§4) Male Lepr^db/db mice at 38 days of age were intraperitoneally (ip) injected daily with physiological saline ([…]) containing 0.2% DMSO, Compound #C, Compound #50, Compound #68, and/or Compound #43 (25 μg selenium or sulfur equivalents of each compound per kilogram body weight, diluted in sterile physiological saline) for periods ranging from 43-90 days. Body weights of the above treated mice were recorded daily using a balance and any visible abnormal animal gross morphology and walking behavior were monitored daily. After the treatments, animals were fasted overnight and then subjected to blood glucose or HbA1c assays, glucose tolerance tests or tissue collections.
(§5) For comparative studies of any potential anti-diabetic effects of Compounds #43, #69 and #70, male Lepr^db/db mice at 41 days of age were intraperitoneally (ip) injected daily with physiological saline ([…]) containing 0.2% DMSO, Compound #43, Compound #69, or Compound #70 (25 μg selenium of each compound per kilogram body weight, diluted in sterile physiological saline). After the treatments for 43 days, animals were fasted overnight and then subjected to blood glucose and glucose tolerance tests. After daily treatments of these compounds for 90 days, sera from these animals were collected and then subjected to blood HbA1c assays.
Glucose tolerance tests were performed as described previously (Li et al, Int J Biol Sci 2008; 4:29-36). Briefly, overnight-fasted Lepr^db/db mice after saline or compound treatments were injected intraperitoneally with 2 grams/kg body weight of 20% D-glucose. Blood glucose levels at time 0 (immediately before the injection of glucose), 0.25, 0.5, 1 and 2 hours after injection of glucose were determined using a glucometer with a maximum glucose measurement capacity of 600 mg/dL. Because of this, blood glucose levels over 600 mg/dL were counted as 600 mg/dL in the data analysis.

[5] = tested on: Lepr^db/db mice; assay: Chronic treatment: fasting blood glucose and HbA1c in Lepr^db/db mice; type: in vivo, mouse; settings: for effect on HbA1c levels: 25 μg selenium/kg ip daily for 90 days from 41 days of age (FIG. 5)
Procedure: as §4, §5
After treatment with physiological saline or compounds or after the injection of a bolus of glucose, a small drop of blood from each mouse was collected by snipping the mouse tail tip. Blood glucose levels were determined using a Glucometer with a maximum capability for glucose measurement of 600 mg/dL.
After saline or compound treatments, a small drop of blood from the mouse tail was collected in an EDTA-coated eppendorf tube (to prevent blood coagulation) (Fisher Scientific), and then subjected to a HbA1c assay using the Crystal Chem's or Kamiya's mouse glycated hemoglobin A1c ELISA kit, according to the manufacturer's protocol. Also after the final treatments, mouse serum was collected and subjected to HbA1c assay using the Kamiya Biomeidcal Company's mouse HbA1c kit, according to the manufacturer's protocol.

[6] = tested on: H4IIE cells; assay: Cell viability (CellTiter96 AQueous One) in H4IIE cells; type: cell-based, rat; settings: tested doses
Procedure: as §2

[7] = tested on: HepG2 cells; assay: Cell viability (CellTiter96 AQueous One) in HepG2 cells; type: cell-based, human; settings: higher doses 0.5-4 mM
Procedure: as §2

[8] = tested on: H4IIE cells; assay: Glucose production assay in H4IIE cells; type: cell-based, rat
Procedure: as §1, §2, §3

[9] = tested doses, serum-free glucose production media, 48 hr (FIG. 1)
[10] = 25 μg selenium/kg ip daily, 90 days, from 41 days of age
[11] = 25 μg selenium/kg ip daily for 43 days from 41 days of age (FIG. 5)

T1 sequence (P15127 764-1383 limits assumed): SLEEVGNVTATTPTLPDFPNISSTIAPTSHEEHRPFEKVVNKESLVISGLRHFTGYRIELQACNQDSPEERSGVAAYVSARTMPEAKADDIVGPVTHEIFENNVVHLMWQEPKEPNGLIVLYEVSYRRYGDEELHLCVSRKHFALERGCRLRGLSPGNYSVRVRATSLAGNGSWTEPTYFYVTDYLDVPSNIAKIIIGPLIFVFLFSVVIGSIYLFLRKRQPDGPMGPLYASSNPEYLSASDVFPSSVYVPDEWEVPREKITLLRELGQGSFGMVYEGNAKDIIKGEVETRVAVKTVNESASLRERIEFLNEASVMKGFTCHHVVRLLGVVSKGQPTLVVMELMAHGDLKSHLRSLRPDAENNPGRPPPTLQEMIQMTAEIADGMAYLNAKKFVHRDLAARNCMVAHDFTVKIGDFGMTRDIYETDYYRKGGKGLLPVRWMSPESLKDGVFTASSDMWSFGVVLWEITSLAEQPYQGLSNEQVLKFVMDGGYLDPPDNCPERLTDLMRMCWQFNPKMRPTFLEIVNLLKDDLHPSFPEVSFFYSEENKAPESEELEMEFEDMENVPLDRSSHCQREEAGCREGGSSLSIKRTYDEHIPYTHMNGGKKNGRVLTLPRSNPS
T1 sequence (P15127 27-759 partner limits assumed): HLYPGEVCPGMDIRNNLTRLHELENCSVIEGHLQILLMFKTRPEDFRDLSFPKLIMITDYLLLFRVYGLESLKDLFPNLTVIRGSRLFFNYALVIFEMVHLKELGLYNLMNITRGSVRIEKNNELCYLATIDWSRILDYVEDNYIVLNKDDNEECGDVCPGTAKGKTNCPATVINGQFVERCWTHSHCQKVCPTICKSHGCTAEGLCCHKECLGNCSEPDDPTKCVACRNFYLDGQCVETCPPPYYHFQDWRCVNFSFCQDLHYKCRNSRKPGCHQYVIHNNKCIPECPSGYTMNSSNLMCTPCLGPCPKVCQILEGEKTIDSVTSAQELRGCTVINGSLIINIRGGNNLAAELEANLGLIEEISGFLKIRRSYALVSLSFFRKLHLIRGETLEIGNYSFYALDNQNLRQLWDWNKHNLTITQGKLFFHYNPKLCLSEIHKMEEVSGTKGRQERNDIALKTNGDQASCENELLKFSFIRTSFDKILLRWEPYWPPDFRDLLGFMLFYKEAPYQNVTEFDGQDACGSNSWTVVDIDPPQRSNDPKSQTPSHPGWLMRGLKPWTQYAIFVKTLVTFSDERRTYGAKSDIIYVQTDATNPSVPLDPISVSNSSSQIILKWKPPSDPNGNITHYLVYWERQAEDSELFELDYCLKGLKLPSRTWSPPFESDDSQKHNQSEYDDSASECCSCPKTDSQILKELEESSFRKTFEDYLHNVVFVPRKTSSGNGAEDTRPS

Nc1ncnc2c1ncn2[C@@H]1O[C@H](CO)[C@@H](O)[C@H]1O [Compound #57, Adenosine, reference compound]
effect on glucose production in HepG2 cells [1, 9]: did not inhibit glucose production

C[C@H]1O[C@@H](n2cnc3c(N)ncnc32)C[C@@H]1O [Compound #59, 2′,5′-Dideoxyadenosine, reference compound]
effect on glucose production in HepG2 cells [1, 9]: did not inhibit glucose production

Nc1ncnc2c1ncn2C1CCCO1 (stereo not drawn) [Compound #61, 9-(tetrahydrofuran-2-yl)-9h-purin-6-amine (SQ 22,536), reference compound]
effect on glucose production in HepG2 cells [1, 9]: did not inhibit glucose production

Nc1ncnc2[nH]cnc12 [Compound #62, Adenine, reference compound]
effect on glucose production in HepG2 cells [1, 9]: did not inhibit glucose production

C[S+](CC[C@H](N)C(=O)O)C[C@H]1O[C@@H](n2cnc3c(N)ncnc32)C(O)C1O.[I-] (stereo partly drawn) [Compound #64, S-(5′-Adenosyl)-L-methionine iodide (SAM), reference compound]
effect on glucose production in HepG2 cells [1, 9]: minimal effects in lowering glucose production

CSC[C@H]1O[C@@H](n2cnc3c(N)ncnc32)[C@H](OC(C)=O)[C@@H]1OC(C)=O [Compound #68, Adenosine, 5′-S-methyl-5′-thio-, 2′,3′-diacetate]
overt toxic effects (morphology, walking behavior, body weight) ([2]; 25 μg selenium or sulfur/kg ip daily, 3 months): no overt toxic effects
activation of Insr [3]: less effective at the tested dose than Compound #43
glucose tolerance (overall) ([4]; 25 μg selenium or sulfur/kg ip daily 2 months (FIG. 8B)): little or no effects to improve glucose tolerance
blood glucose level at 2 hr after glucose injection ([4]; FIG. 8B, 2 months treatment): no obvious decrease of blood glucose levels
effect on glucose production in HepG2 cells [1, 9]: minimal effects in lowering glucose production
effect on fasting blood glucose levels ([5]; 25 μg selenium or sulfur/kg ip daily, 3 months (FIG. 4)): did not significantly lower blood glucose levels
effect on blood HbA1c levels ([5]; 25 μg sulfur/kg ip daily, 3 months (FIG. 4)): did not affect blood HbA1c levels

CCCC(=O)OC1C(OC(=O)CCC)[C@@H](C[Se]C)O[C@H]1n1cnc2c(N)ncnc21 (stereo partly drawn) [Compound #70, Adenosine, 5′-Se-methyl-5′-selino-, 2′,3′-dibutanoate]
overt toxic effects (morphology, walking behavior, body weight) [2, 10]: no overt toxic effects
blood glucose level at 2 hr after glucose injection ([4]; FIG. 8C, 43 days treatment): slight but non-significant decrease in blood glucose levels
effect on glucose production in HepG2 cells [1, 9]: inhibited glucose production
effect on fasting blood glucose levels [5, 11]: decrease of fasting blood glucose levels in Lepr^db/db mice but less significant than Compound #43
decrease of HbA1c levels (initial assessments) ([5]; 25 μg selenium/kg ip daily for 90 days (FIG. 5), later revised): about 50%
effect on HbA1c levels [5]: neither Compound #69 nor Compound #70 had any significant effect

CN(C)C(=N)N=C(N)N [metformin, reference compound]
toxic effect on cell viability [6]: No toxic effect
cell toxicity [7]: showed cell toxicity
inhibitory activity on glucose production in H4IIE cells ([8]; 36.25 μM): little or no inhibitory activity
IC50 ([8]; Rattus norvegicus, H4IIE, serum-free, 24 hr, read-out: IC50 (inhibition of glucose production)): 275 µM
effect on glucose production in H4IIE cells ([8]; serum-free, 24 hr (FIG. 2)): dose-dependent decrease in glucose production
effect on glucose production in HepG2 cells ([1]; 500 μM): did not inhibit glucose production

Adenosine, 5′-Se-methyl-5′-selino-, 2′,3′-dipropionate [Compound #69]
overt toxic effects (morphology, walking behavior, body weight) [2, 10]: no overt toxic effects
blood glucose level at 2 hr after glucose injection ([4]; FIG. 8C, 43 days treatment): slight but non-significant decrease in glucose levels
effect on glucose production in HepG2 cells [1, 9]: inhibited glucose production
effect on fasting blood glucose levels [5, 11]: slight increase in fasting blood glucose levels
effect on HbA1c levels [5]: did not result in a significant decrease of HbA1c levels

Adenosine, F—Se-methyl-F-seleno-, 2′-morpholinocarbamate and Adenosine, 5′-Se-methyl-F-seleno-, 3′-morpholinocarbamate [Compound #53]
effect on glucose production in HepG2 cells [1, 9]: inhibited glucose production
